From PubChem BioAssay (NCI)
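Interpolation was linear, between the two tested concentrations surrounding the appropriate level; five concentrations were tested over 48 hours in 96-well plates. GI50: concentration for 50% inhibition of growth. TGI denotes the concentration required for complete inhibition of growth.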

Each compound was assayed on CAKI-1 renal (assay: inhibition of tumour cell growth, NCI panel, 48 h).

| SMILES | TGI | GI50 |
| --- | --- | --- |
| Cc1sc2nc(-c3cccc([N+](=O)[O-])c3)c(/C=N/N=C(N)N)n2c1C | 3.77 µM | – |
| CSc1cc(Cl)c(C)cc1S(=O)(=O)NC(=O)NNc1cccc(C(F)(F)F)n1 | > 100 µM | – |
| COc1cccc2c1C(=O)c1c(O)c3c(c(O)c1C2=O)CC(O)(C(=O)CO)CC3OC1CC(N2CCOCC2C#N)C(O)C(C)O1 (centres undefined) | 0.00425 µM | – |
| CN1CCN(CCCNc2nc3ccc(Oc4ccc(NC(=O)Nc5cc(C(F)(F)F)ccc5F)cc4)cc3[nH]2)CC1 | > 25 µM | > 25 µM |
| CCO/C=N\C1=C(C#N)SC2=N/C(=C\c3ccc(OC)cc3)C(=O)N21 | > 100 µM | – |

Each compound was assayed on CCRF-CEM leukemia (assay: inhibition of tumour cell growth, NCI panel, 48 h).

| SMILES | TGI | GI50 |
| --- | --- | --- |
| CC(=O)OC1C(Oc2c(C)cc3c(c2O)[C@@H](C)CC[C@@H]3[C@@H](C)CCC=C(C)C)OCC(O)C1O (some centres undefined) | 66.9 µM | – |
| Cc1ccc2c(c1)CC1(Cc3ccccc3C1=O)C2=O (centres undefined) | > 100 µM | – |
| CSc1cc(Cl)c(C)cc1S(=O)(=O)NC(=O)NNc1cccc(C(F)(F)F)n1 | > 100 µM | – |
| COc1cccc2c1C(=O)c1c(O)c3c(c(O)c1C2=O)CC(O)(C(=O)CO)CC3OC1CC(N2CCOCC2C#N)C(O)C(C)O1 (centres undefined) | < 0.0001 µM | – |
| CN1CCN(CCCNc2nc3ccc(Oc4ccc(NC(=O)Nc5cc(C(F)(F)F)ccc5F)cc4)cc3[nH]2)CC1 | 10.8 µM | 4.96 µM |
| CCO/C=N\C1=C(C#N)SC2=N/C(=C\c3ccc(OC)cc3)C(=O)N21 | > 100 µM | – |

The compounds below were run on SR leukemia (assay: inhibition of tumour cell growth, NCI panel, 48 h).

| SMILES | TGI | GI50 |
| --- | --- | --- |
| CC(=O)OC1C(Oc2c(C)cc3c(c2O)[C@@H](C)CC[C@@H]3[C@@H](C)CCC=C(C)C)OCC(O)C1O (some centres undefined) | 47.3 µM | – |
| Cc1ccc2c(c1)CC1(Cc3ccccc3C1=O)C2=O (centres undefined) | > 100 µM | – |
| CSc1cc(Cl)c(C)cc1S(=O)(=O)NC(=O)NNc1cccc(C(F)(F)F)n1 | > 100 µM | – |
| COc1cccc2c1C(=O)c1c(O)c3c(c(O)c1C2=O)CC(O)(C(=O)CO)CC3OC1CC(N2CCOCC2C#N)C(O)C(C)O1 (centres undefined) | > 100 µM | – |
| CN1CCN(CCCNc2nc3ccc(Oc4ccc(NC(=O)Nc5cc(C(F)(F)F)ccc5F)cc4)cc3[nH]2)CC1 | > 16.8 µM | 6.33 µM |
| CCO/C=N\C1=C(C#N)SC2=N/C(=C\c3ccc(OC)cc3)C(=O)N21 | > 100 µM | – |

What follows are compounds tested on SK-OV-3 ovarian (assay: inhibition of tumour cell growth, NCI panel, 48 h).

| SMILES | TGI | GI50 |
| --- | --- | --- |
| CC(=O)OC1C(Oc2c(C)cc3c(c2O)[C@@H](C)CC[C@@H]3[C@@H](C)CCC=C(C)C)OCC(O)C1O (some centres undefined) | 38.1 µM | – |
| Cc1ccc2c(c1)CC1(Cc3ccccc3C1=O)C2=O (centres undefined) | > 100 µM | – |
| Cc1sc2nc(-c3cccc([N+](=O)[O-])c3)c(/C=N/N=C(N)N)n2c1C | 3.3 µM | – |
| CSc1cc(Cl)c(C)cc1S(=O)(=O)NC(=O)NNc1cccc(C(F)(F)F)n1 | > 100 µM | – |
| COc1cccc2c1C(=O)c1c(O)c3c(c(O)c1C2=O)CC(O)(C(=O)CO)CC3OC1CC(N2CCOCC2C#N)C(O)C(C)O1 (centres undefined) | 2.4 µM | – |
| CN1CCN(CCCNc2nc3ccc(Oc4ccc(NC(=O)Nc5cc(C(F)(F)F)ccc5F)cc4)cc3[nH]2)CC1 | 10.3 µM | 4.36 µM |
| CCO/C=N\C1=C(C#N)SC2=N/C(=C\c3ccc(OC)cc3)C(=O)N21 | > 100 µM | – |

What follows are compounds tested on MDA-N (assay: inhibition of tumour cell growth, NCI panel, 48 h).

| SMILES | TGI |
| --- | --- |
| CC(=O)OC1C(Oc2c(C)cc3c(c2O)[C@@H](C)CC[C@@H]3[C@@H](C)CCC=C(C)C)OCC(O)C1O (some centres undefined) | 36 µM |
| Cc1ccc2c(c1)CC1(Cc3ccccc3C1=O)C2=O (centres undefined) | > 100 µM |
| Cc1sc2nc(-c3cccc([N+](=O)[O-])c3)c(/C=N/N=C(N)N)n2c1C | 3.15 µM |
| CSc1cc(Cl)c(C)cc1S(=O)(=O)NC(=O)NNc1cccc(C(F)(F)F)n1 | > 100 µM |
| COc1cccc2c1C(=O)c1c(O)c3c(c(O)c1C2=O)CC(O)(C(=O)CO)CC3OC1CC(N2CCOCC2C#N)C(O)C(C)O1 (centres undefined) | < 0.0001 µM |
| CCO/C=N\C1=C(C#N)SC2=N/C(=C\c3ccc(OC)cc3)C(=O)N21 | > 100 µM |

The compounds below were run on U251 CNS (assay: inhibition of tumour cell growth, NCI panel, 48 h).

| SMILES | TGI | GI50 |
| --- | --- | --- |
| CC(=O)OC1C(Oc2c(C)cc3c(c2O)[C@@H](C)CC[C@@H]3[C@@H](C)CCC=C(C)C)OCC(O)C1O (some centres undefined) | 32.3 µM | – |
| Cc1ccc2c(c1)CC1(Cc3ccccc3C1=O)C2=O (centres undefined) | > 100 µM | – |
| Cc1sc2nc(-c3cccc([N+](=O)[O-])c3)c(/C=N/N=C(N)N)n2c1C | 3.07 µM | – |
| CSc1cc(Cl)c(C)cc1S(=O)(=O)NC(=O)NNc1cccc(C(F)(F)F)n1 | > 100 µM | – |
| CN1CCN(CCCNc2nc3ccc(Oc4ccc(NC(=O)Nc5cc(C(F)(F)F)ccc5F)cc4)cc3[nH]2)CC1 | 7.38 µM | 3.86 µM |
| CCO/C=N\C1=C(C#N)SC2=N/C(=C\c3ccc(OC)cc3)C(=O)N21 | > 100 µM | – |

These compounds were tested on NCI-H226 lung (assay: inhibition of tumour cell growth, NCI panel, 48 h).

| SMILES | TGI | GI50 |
| --- | --- | --- |
| CC(=O)OC1C(Oc2c(C)cc3c(c2O)[C@@H](C)CC[C@@H]3[C@@H](C)CCC=C(C)C)OCC(O)C1O (some centres undefined) | 40.6 µM | – |
| Cc1ccc2c(c1)CC1(Cc3ccccc3C1=O)C2=O (centres undefined) | > 100 µM | – |
| CSc1cc(Cl)c(C)cc1S(=O)(=O)NC(=O)NNc1cccc(C(F)(F)F)n1 | > 100 µM | – |
| COc1cccc2c1C(=O)c1c(O)c3c(c(O)c1C2=O)CC(O)(C(=O)CO)CC3OC1CC(N2CCOCC2C#N)C(O)C(C)O1 (centres undefined) | < 0.0001 µM | – |
| CN1CCN(CCCNc2nc3ccc(Oc4ccc(NC(=O)Nc5cc(C(F)(F)F)ccc5F)cc4)cc3[nH]2)CC1 | 16.8 µM | 5.55 µM |
| CCO/C=N\C1=C(C#N)SC2=N/C(=C\c3ccc(OC)cc3)C(=O)N21 | > 100 µM | – |

These compounds were tested on SF-268 CNS (assay: inhibition of tumour cell growth, NCI panel, 48 h).

| SMILES | TGI |
| --- | --- |
| CC(=O)OC1C(Oc2c(C)cc3c(c2O)[C@@H](C)CC[C@@H]3[C@@H](C)CCC=C(C)C)OCC(O)C1O (some centres undefined) | 33.1 µM |
